Patent US6759410B1, “3,4-dihydro-(1H)-quinazolin-2-ones and their use as CSBP/p38 kinase inhibitors” (SmithLine Beecham Corporation, priority 1999, dated 2004)

## Cc1ccccc1-c1cccc2c1CNC(=O)N2c1ccccc1 [Example 14, 1-Phenyl-5-(2-methylphenyl)-3,4-dihydro-(1H)-quinazolin-2-one]
  melting point: 236 to 238 °C
